Where two headings read alike, the source gives them in different places.
Columns and labels:
[1] = target: T1, GST-cGB-PDE5 fusion protein (Homo sapiens, UniProt O76074); assay: cGMP binding assay with GST-cGB-PDE5 fusion protein; conditions: for competition with cGMP binding to GST-cGB-PDE5 at high concentration: compound at high concentration, cGMP 2 μM
T1 construct: made in house; host or cells: E. coli BL21 (DE3)
Excerpt: RT-PCR method is used to obtain the cGB domain of PDE5 with forward and reverse primers designed from bovine PDE5A cDNA sequence (McAllister-Lucas L. M et al, J. Biol. Chem. 268, 22863-22873, 1993) and the selection among PDE 1-10 families. 5′-3′, Inc. kits for total RNA followed by oligo (dT) column purification of mRNA are used with HT-29 cells. […] It is then cloned into pGEX-5X-3 glutathione-S-transferase (GST) fusion vector (Pharmacia Biotech )with tac promoter, and EcoRI and XhoI cut sites. The fusion vector is then transfected into E. Coli BL21 (DE3) bacteria (Invitrogen). The transfected BL21 bacteria is grown to log phase, and then IPTG is added as an inducer. The induction is carried at 20° C. for 24 hrs. The bacteria are harvested and lysed. The soluble cell lysate is incubated with GSH conjugated Sepharose 4B (GSH-Sepharose 4B). The GST-cGB-PDE5 fusion protein can bind to the GSH-Sepharose beads, and the other proteins are washed off from beads with excessive cold PBS.
Then, the mixture is transferred to Brandel MB-24 cell harvester with GF/B as the filter membrane followed by 2 washes with 10 mL of cold 5 mM potassium buffer(pH 6.8). The membranes are then cut out and transferred to scintillation vials followed by the addition of 1 mL of H2O and 6 mL of Ready Safe™ liquid scintillation cocktail to each vial. The vials are counted on a Beckman LS 6500 scintillation counter.
The quenching by filter membrane or other debris are also calibrated.

native bovine PDE5 = native bovine PDE5 (Bos taurus, UniProt Q28156); conditions: read-out: Kd of cGMP binding, native bovine PDE5; cited from earlier work
PDE5 = PDE5 (Homo sapiens, UniProt O76074); assay: cGMP PDE inhibition, 3H-cGMP hydrolysis: PDE5; type: biochemical; parameters: partially purified cGMP-specific PDE isolated from HT-29 cells; endogenous in cells; host or cells: HT-29
Method: (Thompson, W. J., Teraski, W. L., Epstein, P. M., Strada, S. J., Advances in Cyclic Nucleotide Research, 10:69-92, 1979, which is incorporated herein by reference). […] The mixture is incubated at 30° C. for 10 minutes with isolated PDE2 and/or PDE5. Reactions are terminated, for example, by boiling the reaction mixture for 75 seconds. After cooling on ice, 100 μl of 0.5 mg/mL snake venom (O. Hannah venom available from Sigma) is added and incubated for 10 minutes at 30° C. This reaction is then terminated by the addition of an alcohol, e.g. 1 mL of 100% methanol. Assay samples are applied to 1 mL Dowex 1-X8 column; and washed with 1 mL of 100% methanol. The amount of radioactivity in the breakthrough and the wash from the column is combined and measured with a scintillation counter. The degree of phosphodiesterase inhibition is determined by calculating the amount of radioactivity in drug-treated reactions and comparing against a control sample (a reaction mixture lacking the tested compound but with drug solvent).
Compounds of this invention are also PDE2 and PDE5 inhibitors as taught in part U.S. patent application Ser. No. 09/046,739 filed Mar. 24, 1998. […] The amount of radioactivity in the breakthrough and the wash from the columns in then measured with a scintillation counter. […]

U937 cells = assay: apoptosis induction of U937 cells (active caspase 3 immunofluorescence); type: cell-based; conditions: 24 hours
Method: The U937 monocyte cell line was derived from a histocytic lymphoma and can be driven to differentiate into an ‘activated macrophage like’ state by treatment with 5nM phorbal ester (TPA). Treated U937 cells become adherent, increase their cytoplasmic volume and express macrophage-specific cell surface markers. The presence and level of PDE2 and 5 mRNA in both differentiated and non-differentiated U937 cells was confirmed by performing RT-PCR experiments on total RNA.
U937 cells (from ATCC Rockville, Md.) were grown in RPMI media supplemented with 5% FCS, glutamine, antibiotic/antimycotic and sodium pyruvate. Total RNA was isolated from two U937 cultures, one treated with 5nM TPA for 48 hours and one grown in normal media as listed above, using the Rouche High Pure RNA Isolation Kit (cat# 1 828 665) as per manufacturers protocol. cDNA was then synthesized from the total RNA using GibcoBRL Superscriptll (Cat # 18064-022) reverse transcriptase as per manufacturers protocol. The resulting cDNA was used as a template for RT-PCR reactions using primer sets specific for PDE2 (forward: […], reverse: […]) or PDE5 (forward: […], reverse: […]). mRNA for PDE2 and 5 were both present in the untreated U937 cells. Upon treatment with TPA, the relative amounts of PDE2 mRNA increased 5 fold. Therefore, U937 cells treated with TPA and driven to differentiate into an activated macrophage like state have elevated levels of PDE2 mRNA (see FIG. 1).
The presence of PDE2 and PDE5 protein within U937 cells was confirmed by indirect immunofluorescence (IIF). U937 cells were cultured as above. Two U937 cultures, one grown in the presence of 5 nM TPA for 48 hours and one grown in normal media were processed. All cultures were collected by centrifugation (Shandon Cytospin, 2 minutes @ 600 rpm) onto poly-L lysine-coated slides and immediately fixed in fresh 3% paraformaldehyde buffered in PBS for 10 minutes. Adherent cultures were grown on coverslips and fixed as above. […]
The level of apoptosis in U937 cells was quantified by scoring 500 consecutive cells for the presence of active caspase 3. […]

Row | Compound | competition with cGMP in binding to the cGMP binding sites of GST-cGB-PDE5 ([1]; 3H-cGMP 2 μM, 22° C., 1 hour) | further results
1 | O=c1[nH]cnc2c1ncn2[C@@H]1O[C@@H]2COP(=O)(O)O[C@H]2[C@H]1O [Cyclic IMP, cyclic IMP] |  | competition with cGMP binding to GST-cGB-PDE5 at high concentration [1]: can partially compete
2 | Nc1nc2c(nc(Br)n2[C@@H]2O[C@@H]3COP(=O)(O)O[C@H]3[C@H]2O)c(=O)[nH]1 [Example 8-bromo-cGMP, 8-bromo-cGMP] |  | competition with cGMP binding to GST-cGB-PDE5 at high concentration [1]: can partially compete
3 | CCCCOC1C2OP(=O)(O)OCC2OC1n1cnc2c(N)ncnc21 (stereo not shown) [2′-O-butyl-cAMP] | did not compete | 
4 | CC1=C(CC(=O)O)c2cc(F)ccc2/C1=C\c1ccc(S(C)(=O)=O)cc1 [exisulind] | None of the PDE5 inhibitors showed any competition with cGMP | 
5 | O=c1ccn([C@@H]2O[C@@H]3COP(=O)(O)O[C@H]3[C@H]2O)c(=O)[nH]1 [cUMP, cyclic UMP] | did not compete | 
6 | CCCCOC1C2OP(=O)(O)OCC2OC1n1cnc2c(=O)[nH]c(N)nc21 (stereo not shown) [2′-O-butyl-cGMP] | did not compete | 
7 | Nc1nc2c(ncn2[C@@H]2O[C@@H]3COP(=O)(O)O[C@H]3[C@H]2O)c(=O)[nH]1 [cGMP, cyclic 3′,5′-guanosine monophosphate] |  | Kd ([1]; read-out: Kd of cGMP binding to GST-cGB-PDE5 fusion protein, two cGMP binding sites): 1.6 ± 0.2 µM; Kd (native bovine PDE5): 1.3 µM
8 | Nc1ncnc2c1ncn2[C@@H]1O[C@@H]2COP(=O)(O)O[C@H]2[C@H]1O [Cyclic AMP] |  | competition with cGMP in binding to the cGMP binding sites of GST-cGB-PDE5 [1]: did not compete
9 | CCCOc1ccccc1-c1nc2nn[nH]c2c(=O)[nH]1 [zaprinast] | None of the PDE5 inhibitors showed any competition with cGMP | 
10 | Nc1ccn([C@@H]2O[C@@H]3COP(=O)(O)O[C@H]3[C@H]2O)c(=O)n1 [cCMP, cyclic CMP] | did not compete | 
11 | O=C([O-])C1CCN(c2nc(NCc3ccc4c(c3)OCO4)c3cc(Cl)ccc3n2)CC1.[Na+] [Example E4021] | None of the PDE5 inhibitors showed any competition with cGMP | 
12 | CSc1ccc(/C=C2/C(C)=C(CC(=O)O)c3cc(F)ccc32)cc1 [Sulindac sulfide, sulindac sulfide] | None of the PDE5 inhibitors showed any competition with cGMP | 
13 | CC1=C(CC(=O)NCc2ccccc2)c2cc(F)ccc2/C1=C\c1ccncc1 [Example 1, (Z)-5-Fluoro-2-Methyl-(4-Pyridinylidene)-3-(N-Benzyl)-Indenylacetamide] |  | IC50 (PDE5): 0.68 µM
14 | CCCc1nn(C)c2c(=O)[nH]c(-c3cc(S(=O)(=O)N4CCN(C)CC4)ccc3OCC)nc12 [sildenafil, reference compound] |  | levels of apoptosis (active caspase 3) (U937 cells; 0.3nM): No increase in the levels of apoptosis compared to normal background
15 | COc1ccc(C2CNC(=O)C2)cc1OC1CCCC1 (stereo not shown) [rolipram, reference compound] |  | levels of apoptosis (active caspase 3) (U937 cells; 0.5uM): No increase in the levels of apoptosis compared to normal background

Source: US6465494B1, “Methods for treatment of cystic fibrosis” (Cell Pathways, Inc., priority 2001, dated 2002)
